Legend:
[1] = target: Glutamate NMDA receptor; GRIN1/GRIN2A (Homo sapiens, UniProt Q05586+Q12879); test: Inhibition of human recombinant NR1/NR2A receptor expressed in U2OS assessed as change in intracellular calcium level by FLIPR assay; format: cell-based; design: concentration or dose not given beside the values
[2] = target: Glutamate NMDA receptor; GRIN1/GRIN2B (Homo sapiens, UniProt Q05586+Q13224); test: Inhibition of human recombinant NR1/NR2B receptor expressed in U2OS assessed as change in intracellular calcium level by FLIPR assay; format: cell-based; design: concentration or dose not given beside the values

Row | SMILES | Activity [1] | IC50 [1] | Activity [2] | IC50 [2]
1 | CCCCOc1cccc(C2(N3CCCCC3)CCCCC2)c1 | 94% | 2 µM | 94% | 20 µM
2 | CNC1(c2ccccc2Cl)CCCNC1=O (stereo not given) | 80% | 39.8 µM | 80% | > 251 µM
3 | CNC1(c2ccccc2Cl)CCCCC1=O (stereo not given) [KETAMINE] | > 100% | 1.26 µM | > 100% | 5.01 µM
4 | CN1CCC(c2ccccc2)(N2CCCCC2)C1=O (stereo not given) | 80% | 50.1 µM | 80% | 251 µM
5 | CNC1(c2ccc(OC)cc2Cl)CCCCC1=O (stereo not given) | 80% | 10 µM | 80% | 20 µM
6 | COc1ccc(C2(N3CCCCC3)CCCCC2)cc1 | 94% | 3.98 µM | 94% | 15.8 µM
7 | CN1CCCC(c2ccccc2)(N2CCCCC2)C1=O (stereo not given) | 80% | 3.16 µM | 80% | > 251 µM
8 | O=C1NCCC1(c1ccccc1)N1CCCCC1 (stereo not given) | 80% | 25.1 µM | 80% | 63.1 µM
9 | c1ccc(C2(N3CCCCC3)CCCCC2)nc1 | 94% | 2.51 µM | 94% | 7.94 µM
10 | O=C1NCCCC1(c1ccccc1)N1CCCCC1 (stereo not given) | 80% | 25.1 µM | 80% | 158 µM
11 | FC(F)(F)COc1cccc(C2(N3CCCCC3)CCCCC2)c1 | 94% | 5.01 µM | 94% | 31.6 µM
12 | NC1(c2ccccc2Cl)CCCNC1=O (stereo not given) | 80% | > 50.1 µM | 80% | > 50.1 µM
13 | c1ccc(C2(N3CCCCC3)CCCCC2)cc1 [PHENCYCLIDINE] | > 100% | 0.398 µM | > 100% | 1.26 µM
14 | CNC1(c2ccccc2Cl)CCCN(C)C1=O (stereo not given) | 80% | > 251 µM | 80% | > 251 µM
15 | CCCCOc1ccc(C2(N3CCCCC3)CCCCC2)cc1 | 94% | > 50.1 µM | 94% | > 50.1 µM

Source: ChEMBL document CHEMBL1759939, “Novel analogues of ketamine and phencyclidine as NMDA receptor antagonists” (Bioorg Med Chem Lett, 2011)
